For assay [1], the system named is Leishmania amazonensis. Put plainly: Antileishmanial activity against leishmania amazonensis promastigotes MHOM/BR/77/LTB0016 assessed as assessed as parasite growth inhibition incubated for 72 hrs by Alamar Blue assay. Format: functional, organism-based. The following applies: MHOM/BR/77/LTB0016, 72 h.
Assay [2] relates to Plasmodium falciparum. Nature of the assay: Antiparasitic activity against Plasmodium falciparum K1 assessed as reduction in parasite growth. Format: functional, organism-based.
Assay [3] has as its system Leishmania donovani. Nature of the assay: Antileishmanial activity against Leishmania donovani amastigotes infected in J774 macrophage assessed as inhibition of parasite growth incubated for 48 hrs by luciferase assay. Format: functional, organism-based. The settings on record: J774, 48 h.
Assay [4] relates to Phytophthora capsici. Nature of the assay: Antifungal activity against Phytophthora capsici. Format: functional, organism-based.
The subject of assay [5] is Trypanosoma brucei. Put plainly: Antitrypanosomal activity against Trypanosoma brucei assessed as inhibition of parasite growth incubated for 72 hrs by resazurin reagent fluorimetric analysis. The format is functional, organism-based.
Assay [6] concerns Bacillus subtilis. Put plainly: Antibacterial activity against Bacillus subtilis PY79 assessed as reduction in bacterial growth. The format is functional, organism-based.
In assay [7] the test system is Pseudomonas aeruginosa. Put plainly: Antibacterial activity against Pseudomonas aeruginosa ATCC 15442 […] assessed as reduction in bacterial growth after 18 to 20 hrs by CLSI-based broth microdilution assay. The format is functional. The settings on record: time 18-20 hrs. (Dilution methods test growth across graded concentrations, often in twofold steps.)

The test system of assay [8] is Bacillus subtilis. Put plainly: Antibacterial activity against Bacillus subtilis NBRC 3513. The format is functional.
For assay [9], the system named is Staphylococcus aureus. Nature of the assay: Antibacterial activity against methicillin-resistant Staphylococcus aureus K147 assessed as reduction in bacterial growth. Format: functional.
The test system of assay [10] is Staphylococcus aureus. Put plainly: Antibacterial activity against methicillin-resistant Staphylococcus aureus SAP0017 assessed as reduction in bacterial growth. Format: functional.
Assay [11] relates to Escherichia coli. Nature of the assay: Antibacterial activity against Escherichia coli DC2. The format is functional.
Assay [12] has as its system Leishmania mexicana. Put plainly: Antileishmanial activity against Leishmania mexicana amastigotes. Format: functional, organism-based.
Assay [13] relates to Leishmania mexicana. Put plainly: Antileishmanial activity against Leishmania mexicana promastigotes. Format: functional, organism-based.
Assay [14] relates to Alternaria kikuchiana. Nature of the assay: Antifungal activity against Alternaria kikuchiana. Format: functional, organism-based.
The subject of assay [15] is Bipolaris sorokiniana. Put plainly: Antifungal activity against Cochliobolus sativus. The format is functional, organism-based.
Assay [16] deals with Mycobacterium intracellulare. Nature of the assay: Antibacterial activity against Mycobacterium intracellulare. Format: functional, organism-based.
Assay [17] has as its system Pseudomonas aeruginosa. Put plainly: Antibacterial activity against Pseudomonas aeruginosa assessed as reduction in bacterial growth incubated for 24 hrs by broth microdilution method. The format is functional, organism-based.
The subject of assay [18] is Escherichia coli. Put plainly: Antibacterial activity against Escherichia coli. The format is functional.
The test system of assay [19] is Staphylococcus aureus. Put plainly: Antibacterial activity against Staphylococcus aureus SAP0017 assessed as reduction in bacterial growth. The format is functional.
The subject of assay [20] is Mycobacterium tuberculosis. Put plainly: Antimycobacterial activity against Mycobacterium tuberculosis H37Rv. Format: functional.
In assay [21] the test system is Staphylococcus aureus. Nature of the assay: Antimicrobial activity against methicillin-sensitive Staphylococcus aureus K147 assessed as reduction in microbial growth. The format is functional.
Assay [22] relates to Escherichia coli. Put plainly: Antibacterial activity against Escherichia coli DC2 assessed as reduction in bacterial growth. Format: functional.
In assay [23] the test system is Mycobacterium tuberculosis. Put plainly: Antimycobacterial activity against Mycobacterium tuberculosis Erdman. Format: functional.
In assay [24] the test system is Mycobacterium tuberculosis. Nature of the assay: Antimycobacterial activity against Mycobacterium tuberculosis Erdman ATCC 35801. The format is functional.
The subject of assay [25] is Bacillus subtilis. Put plainly: Antibacterial activity against Bacillus subtilis assessed as reduction in microbial growth. Format: functional.
Assay [26] relates to Monilinia fructigena. Nature of the assay: Antifungal activity against Monilinia fructigena. The format is functional, organism-based.
The subject of assay [27] is Colletotrichum gloeosporioides. Nature of the assay: Antifungal activity against Colletotrichum gloeosporioides. The format is functional, organism-based.
For assay [28], the system named is Mycobacterium tuberculosis. Nature of the assay: Antimycobacterial activity against Mycobacterium tuberculosis H37Rv assessed as inhibition of bacterial growth incubated for 7 to 14 days by MABA assay. Format: functional. The following applies: time 7-14 day.
Assay [29] deals with Mycolicibacterium smegmatis. Put plainly: Antimycobacterial activity against Mycobacterium smegmatis mc2 155 assessed as reduction in bacterial growth. The format is functional.
The subject of assay [30] is Mycobacterium tuberculosis. Nature of the assay: Antimycobacterial activity against Mycobacterium tuberculosis H37Ra. Format: functional, organism-based.
Assay [31] has as its system Mycobacterium tuberculosis. Nature of the assay: Antibacterial activity against Mycobacterium tuberculosis H37Ra assessed as reduction in bacterial growth incubated for 14 days by CLSI protocol based method. The format is functional. The settings on record: 336 h, time 14 day.
For assay [32], the system named is Mycolicibacterium aurum. Put plainly: Antimycobacterial activity against Mycobacterium aurum. The format is functional.
The subject of assay [33] is Mycolicibacterium fortuitum. Put plainly: Antimycobacterial activity against Mycobacterium fortuitum. Format: functional.
For assay [34], the system named is Mycobacterium tuberculosis. Put plainly: Antitubercular activity against Mycobacterium tuberculosis H37Ra assessed as inhibition of bacterial growth. Format: functional.

The structures appear in SMILES notation. In brackets after ≈: the same amount, converted by molar mass.

The IC50 is the concentration that inhibits the measured activity by half. By EC50 is commonly meant the midpoint of the concentration-response curve. Read a low EC50 as greater potency. What is called MIC is the least concentration at which growth counts as inhibited.

As for `C=CC(O)C#CC#C/C=C/C(O)CCCCCCC` (stereo not drawn), the concentration for half-maximal inhibition (IC50) in assay [1] was 5.8 µM.
For the compound `C=C[C@H](C#CC#C[C@H](O)CCCCCCCCC)OC(C)=O`, the IC50 in assay [2] is 8.07 µg/mL (≈ 26.5 µM); in assay [3], > 10 µM.
The compound `C=C[C@@H](O)C#CC#C[C@H](O)c1cccs1` yielded an EC50 in assay [4] of 31 µg/mL (≈ 142 µM).
Turning to `C=CC(O)C#CC#CC(O)/C=C\CCCCCCC` (stereo not drawn), in assay [1], the half-maximal inhibitory concentration (IC50) is 5.7 µM.
With `C=CC(C#CC#CC(O)CCCCCCCCC)OC(C)=O` (stereo not drawn), the 50% inhibitory concentration (IC50) in assay [5] came to 0.46 µM.
On to `C=C[C@H](C#CC#C[C@@H](O)CCCCCCCCC)OC(C)=O`, for which the values for the IC50 in [2] and in [3] were 8.15 µg/mL (≈ 26.8 µM) and > 10 µM, respectively.
On to `C#CC(O)/C=C/C(O)CCCC(O)CC#CC(O)C#CCCCC(O)/C=C/CCCCCC(=O)CCCCCCCCCCCCCC(O)C(O)C(O)C#CC(=O)O` (stereo not drawn), for which the IC50 in assay [6] was found to be 12 µg/mL (≈ 14.8 µM).
With `C=CC(O)C#CC#CC(O)/C=C\C(O)CCCCCC` (stereo not drawn), the MIC in assay [7], in assay [8], in assay [9], in [10] and in assay [11] was 200 µg/mL (≈ 724 µM) in each case.
For `C#CC(O)/C=C/C(O)CCCC(O)CC#CC(O)C#CC(O)CCCC(=O)CCCCC/C=C/C(O)CCCCCCCCCCCCC(O)C(O)C(O)C#CC(=O)O` (stereo not drawn), the 50% inhibitory concentration (IC50) in [6] amounted to 12 µg/mL (≈ 14.5 µM).
In the case of `C=CCCCCC/C=C\CC#CC#C[C@@H](O)C=C`, the concentration for half-maximal inhibition (IC50) in assay [12] turned out to be 0.18 µg/mL (≈ 0.743 µM); in [13], 0.28 µg/mL (≈ 1.16 µM).
Take `C=C[C@@H](O)C#CC#CC/C=C\CCCCCCCC`: the half-maximal effective concentration (EC50) in assay [14] is 48 µg/mL (≈ 186 µM).
For `C=C[C@@H](O)C#CC#C/C=C/[C@H](O)CCCCCCCC`, the midpoint of the response in assay [15], the EC50, lay at 37 µg/mL (≈ 135 µM).
Turning to `CCCCCCCC/C=C\CCCCCCCCC[C@@H](O)C#CC#CCO`, the IC50 in assay [16] is 17 µM; in assay [17], 2.9 µM.
In the same order, the values of `CCCCCCCCCCCCCCCC[C@@H](O)C#CC#CCO` are 7.7 µM and 1.9 µM.
Consider `C#CC(O)/C=C/C(O)CCCC(O)CC#CC(O)C#CCCCCC(=O)CCCCC/C=C/C(O)CCCCCCCCCCCCCC(O)C(O)C#CC(=O)O` (stereo not drawn), for which the IC50 in assay [6] turned out to be 12 µg/mL (≈ 15.1 µM).
Compound `C=C[C@@H](O)C#CC#CC/C=C/CCCCCCCC` returned an EC50 in [14] of 51 µg/mL (≈ 197 µM).
For the compound `CC[C@H](O)C#CC#C[C@@H](O)/C=C\CCCCCCCCOC(C)=O` [OPLOPANDIOL ACETATE], the MIC in assay [18] is > 50 µg/mL.
Turning to `C=C[C@H](O)C#CC#C[C@@H](O)/C=C\CCCCCCC`, the minimum inhibitory concentration (MIC) in assay [19] was 25 µg/mL (≈ 96 µM); in [20], 27 µg/mL (≈ 104 µM); in [21] it was 12 µg/mL; in [22], 2.5 µg/mL (≈ 9.6 µM); in [23], 6 µg/mL (≈ 23 µM); in [24], 6.2 µg/mL (≈ 23.8 µM). Also, the minimal inhibitory concentration (MIC) in assay [25] amounted to 12 µg/mL.
For `C#CC(O)/C=C/C(O)CCCC(O)C(O)C#CC(O)C#CCCCCC(=O)CCCCC/C=C/C(O)CCCCCCCCCCCCCC(O)C(O)C#CC(=O)O` (stereo not drawn), the IC50 in [6] was found to be 25 µg/mL (≈ 30.7 µM).
The same measure, in the same setting: to `C#CC(O)/C=C/C(O)CCCC(O)CC#CC(O)C#CC(O)CCCC(=O)CCCCC/C=C/C(O)CCCCCCCCCCCCCC(O)C(O)C#CC(=O)O` (stereo not drawn) belongs 12 µg/mL (≈ 14.8 µM).
As to `C=CC(O)C#CC#CC(O)c1cccs1` (stereo not drawn), the EC50 in assay [4] is 2.1 µg/mL (≈ 9.62 µM); in [26], 4 µg/mL (≈ 18.3 µM).
On to `C=C[C@H](O)C#CC#CC/C=C/CCCCCCCC`, for which the EC50 in [14] amounted to 41 µg/mL (≈ 159 µM); in assay [27] it was 46 µg/mL (≈ 178 µM); in assay [15], 9 µg/mL (≈ 34.8 µM).
As to `C#CC(O)/C=C/CCCCCCCCC/C=C/CCCCCCCCC/C=C/C(O)C#C` (stereo not drawn), the MIC in assay [28] is 1.4 µM (≈ 0.617 µg/mL).
Turning to `C=C[C@@H](O)C#CC#CC/C=C\CCCCCCC`, the minimal inhibitory concentration (MIC) in assay [29] came to 12 µg/mL (≈ 49.1 µM); in assay [31], 6.25 µg/mL (≈ 25.6 µM); in [32], 16 µM (≈ 3.91 µg/mL); in assay [33] it was 16 µM (≈ 3.91 µg/mL); in assay [34], 3.73 µg/mL (≈ 15.3 µM). The IC50 in assay [30] was 15 µM.
In assay [30], `CCCC/C=C/C#CC#CC(O)CCCCCCC(=O)O` (stereo not drawn) showed a half-maximal inhibitory concentration (IC50) of 25 µg/mL.

The values are drawn from ChEMBL document CHEMBL6074642, “Natural and Bioinspired Lipidic Alkynylcarbinols as Leishmanicidal, Antiplasmodial, Trypanocidal, Fungicidal, Antibacterial, and Antimycobacterial Agents” (J Nat Prod, 2024).
